Experimental data published in patent publication US9273054B2, “Substituted pyrimido[1,6-a]pyrimidines as Lp-PLA2 inhibitors” (Glaxo Group Limited, priority 2011, dated 2016).

Legend:
EAE rats = assay: Rat experimental autoimmune encephalomyelitis (EAE) model, preventive treatment; assay type: in vivo
Procedure: A further study was carried out to study the impact of Lp-PLA2 inhibitors on modulating M1/M2 imbalance. In this study, rats were induced to develop experimental autoimmune encephalomyelitis (EAE) by immunization with myelin basic protein (MBP) antigen and treated with a known Lp-PLA2 inhibitor: 5-((9-Methoxy-4-oxo-6,7-dihydro-4H-pyrimido[6,1-a]isoquinolin-2-yl)oxy)-2-(3-(trifluoromethyl)phenoxy)benzonitrile (See PCT application no. PCT/CN2011/001597). In this preventive treatment model, the compound was administered at day 0 (day of immunization) and continued to administer until day 22. The study lasted for 25 days. Rats were subsequently monitored for symptoms of EAE. Rats were immunized with MBP to develop EAE and symptoms were monitored daily. Plasma Lp-PLA2 activity, O×LDL, and LysoPC concentration were determined at different time points through the course of EAE.

[1] = tested on: proinflammatory (M1) and anti-inflammatory (M2) markers in macrophages; assay: Ex vivo analysis of M1 and M2 markers in macrophages of EAE rats by realtime PCR; set-up: species or system rat; conditions: splenic macrophages day 13 post MBP-immunization and CNS infiltrating macrophages
Procedure: Ex vivo analysis of proinflammatory (M1) and anti-inflammatory (M2) markers in control and compound treated EAE rats. Splenic macrophages were harvested at day 13 post MBP-immunization and assayed for expression of a variety of markers by realtime PCR. CNS infiltrating cells were harvested and macrophages were analyzed for expression of M1 and M2 markers by realtime PCR.

Compound: COc1ccc2c(c1)CCn1c-2cc(Oc2ccc(Oc3cccc(C(F)(F)F)c3)c(C#N)c2)nc1=O [5-((9-Methoxy-4-oxo-6,7-dihydro-4H-pyrimido[6,1-a]isoquinolin-2-yl)oxy)-2-(3-(trifluoromethyl)phenoxy)benzonitrile]
- plasma Lp-PLA2 activity (EAE rats; rat EAE plasma): decreased Lp-PLA2 activity
- plasma LysoPC levels (EAE rats; rat EAE plasma): decreased
- clinical disease (EAE) (EAE rats; rat EAE, MBP immunization, administered day 0 until day 22): reduction in clinical disease
- M1 markers expression [1]: decrease in M1 markers
- M2 markers expression [1]: increase in M2 markers
